Usually EC50 stands for the concentration giving half of the maximal effect.

The text below walks through data of US9469645B2, “Compounds and compositions for the treatment of parasitic diseases” (Novartis AG, priority 2009, dated 2016).

Assay [1] deals with 3D7 P. falciparum strain. The experiment in a line: parasite proliferation assay in infected red blood cells (SYBR Green I). In kind it is cell-based, Plasmodium falciparum. To be noted: Plasmodium falciparum, 3D7, Erythrocyte, 3D7 strain; read-out: EC50 3D7 strain. In short, it runs like this: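 P. falciparum 3D7 grown in O+ human erythrocytes to 3–8% parasitemia and exposed to compounds. Proliferation read as the increase in parasite DNA. Detection used SYBR Green I in saponin/triton-X/EDTA lysis buffer, with overnight lysis at room temperature.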

Assay [2] relates to W2 strain. The experiment in a line: parasite proliferation assay in infected red blood cells (SYBR Green I), W2 strain. The following applies: Plasmodium falciparum, Erythrocyte. In kind it is cell-based, Plasmodium falciparum. The source says:
Compounds of the invention can be assayed to measure their capacity to inhibit proliferation of parasitemia in infected red blood cells. The proliferation is quantified by the addition of SYBR Green I (INVITROGEN)® dye which has a high affinity for double stranded DNA.

In the case of `N[C@@H](Cc1ccc(F)cc1)C(=O)N1CCn2c(nc(-c3ccc(F)cc3)c2Nc2ccc(Cl)cc2)C1` [Compound 458], the values for the EC50 in assay [1] and in assay [2] were 0.02 µM and 0.017 µM, respectively.
The like results for `CC1(C)NC(=O)Cn2c1nc(-c1ccc(F)cc1)c2Nc1ccc(Cl)c(Cl)c1` [Compound 506] were, in that order, 0.19 µM and 0.198 µM.
For `O=C([C@@H]1CCN1)N1CCn2c(nc(-c3ccc(F)cc3)c2Nc2ccc(F)c(F)c2)C1` [Compound 441], the EC50 in assay [1] is 0.06 µM; in assay [2], 0.081 µM.
For the molecule `CNC(=O)c1cccc(Nc2c(-c3ccc(F)cc3)nc3n2CCN(C(=O)CN)C3(C)C)c1` [Compound 553], the EC50 came to 2.37 µM in assay [1] and 4.66 µM in assay [2].
The like results for `Cc1ccc(C[C@H](N)C(=O)N2CCn3c(nc(-c4ccc(F)cc4)c3Nc3ccc(F)c(F)c3)C2)cc1` [Compound 432] were, in that order, 0.06 µM and 0.067 µM.
For the molecule `CCN1CCCC1CNc1c(-c2ccc(F)cc2)nc2n1CC(=O)NC2(C)C` (stereo not drawn) [Compound 561], the values for the EC50 in assay [1] and in assay [2] were 7.17 µM and 4.4 µM, respectively.
The matching figures for `Cc1ccc(Nc2c(-c3ccc(F)cc3)nc3n2CCN(C(=O)C(C)(C)N)C3(C)C)cc1` [Compound 529, 2-amino-1-(2-(4-fluorophenyl)-8,8-dimethyl-3-(p-tolylamino)-5,6-dihydroimidazo[1,2-a]pyrazin-7(8H)-yl)-2-methylpropan-1-one]: 0.002 µM and 0.004 µM.
The matching figures for `CC1(C)NCCn2c1nc(-c1ccc(F)cc1)c2Nc1ccc(F)c(Cl)c1` [Compound 424]: 0.02 µM and 0.03 µM.
Turning to `Cc1ccc(C[C@H](N)C(=O)N2CCn3c(nc(-c4ccc(F)cc4)c3Nc3ccc(C)cc3)C2)cc1` [Compound 484], the EC50 in assay [1] is 0.04 µM; in assay [2] it was 0.023 µM.
The like results for `N[C@@H](CC1CC1)C(=O)N1CCn2c(nc(-c3ccc(F)cc3)c2Nc2ccc(Cl)cc2)C1` [Compound 451] were, in that order, 0.03 µM and 0.019 µM.
On to `Cc1ccc(Nc2c(-c3cc(F)ccc3F)nc3n2CCN(C(=O)CN)C3)cc1` [Compound 418], for which the EC50 turned out to be 0.09 µM in assay [1] and 0.146 µM in assay [2].
The like results for `Cc1cc(Nc2c(-c3ccc(F)cc3)nc3n2CCN(C(=O)C(C)(C)N)C3(C)C)ccc1Cl` [Compound 589] were, in that order, 0.01 µM and 0.006 µM.
Consider `Cc1ccnc(Nc2c(-c3ccc(F)cc3)nc3n2CC(=O)NC3(C)C)c1` [Compound 547], for which the values for the EC50 in assay [1] and in assay [2] were 1.82 µM and 4.66 µM, respectively.
The like results for `Cc1ccc(Nc2c(-c3ccc(F)cc3)nc3n2CCN(C(=O)[C@@](C)(N)CO)C3)cc1` [Compound 504] were, in that order, 0.09 µM and 0.093 µM.
The like results for `CN[C@@H](C(=O)N1CCn2c(nc(-c3ccc(F)cc3)c2Nc2ccc(C)cc2)C1)C(C)C` [Compound 414] were, in that order, 0.16 µM and 0.156 µM.
The matching figures for `Cc1ccc(Nc2c(-c3ccc(F)cc3)nc3n2CCN(C(=O)C(C)Nc2ccc(C)cc2)C3)cc1` (stereo not drawn) [Compound 407]: 0.71 µM and 0.523 µM.
Turning to `Cc1cc(Nc2c(-c3ccc(F)cc3)nc3n2CCN(C(=O)CN)C3(C)C)ccc1Cl` [Compound 496], the EC50 in assay [1] worked out at 0.03 µM; in assay [2], 0.008 µM.
Take `CC1(C)Cn2c(nc(-c3ccc(F)cc3)c2Nc2ccc(Cl)c(F)c2)CN1C(=O)CN` [Compound 576]: the EC50 in assay [1] was 0.2 µM; in assay [2], 0.234 µM.
As to `N[C@H](C(=O)N1CCn2c(nc(-c3ccc(F)cc3)c2Nc2ccc(F)cc2)C1)c1ccc(F)cc1` [Compound 472], the EC50 is 0.05 µM in assay [1] and 0.037 µM in assay [2].
The like results for `CC1(C)c2nc(-c3ccc(F)cc3)c(Nc3ccc(C#N)cc3)n2CCN1C(=O)CN` [Compound 425] were, in that order, 0.01 µM and 0.012 µM.
For the molecule `CC1(C)NC(=O)Cn2c1nc(-c1ccc(F)cc1)c2Nc1cccc(C(F)(F)F)c1` [Compound 500], the EC50 in assay [1] was found to be 1.56 µM; in assay [2], 1.1 µM.
`COc1ccc(CN2Cc3nc(-c4cccc(F)c4)c(Nc4ccc(C)cc4)n3C(C)(C)C2)cc1` [Compound 582]: the EC50 stood at 5.56 µM in assay [1] and 5.92 µM in assay [2].
The like results for `C[C@@H]1NC(=O)Cn2c1nc(-c1ccc(F)cc1)c2Nc1ccc(Cl)c(F)c1` [Compound 559] were, in that order, 0.53 µM and 0.642 µM.
The matching figures for `CC1(C)Cn2c(nc(-c3ccc(F)cc3)c2Nc2ccc(F)c(F)c2)CN1` [Compound 580]: 0.15 µM and 0.169 µM.
The like results for `Cc1ccc(Nc2c(-c3ccc(F)cc3)nc3n2CCN(C(=O)[C@@H](N)Cc2ccc(F)c(F)c2)C3)cc1` [Compound 485] were, in that order, 0.03 µM and 0.023 µM.
As for `CC1(C)NCCn2c1nc(-c1ccc(F)cc1)c2Nc1ccc(Cl)cc1` [Compound 416], the figures for the EC50 in assay [1] and in assay [2] were 0.01 µM and 0.016 µM, respectively.
The matching figures for `CC1(C)NCCn2c1nc(-c1ccc(F)cc1)c2Nc1ccc(F)c(C(=O)O)c1` [Compound 523]: 13.1 µM and 11.6 µM.
In the case of `Cc1ccc(Nc2c(-c3ccc(F)cc3)nc3n2CCN(C(=O)[C@@H](N)CC2CC2)C3)cc1` [Compound 401], the EC50 is 0.02 µM in assay [1] and 0.012 µM in assay [2].
Take `N[C@@H](CC1CC1)C(=O)N1CCn2c(nc(-c3ccc(F)cc3)c2Nc2ccc(F)c(F)c2)C1` [Compound 438]: the EC50 in assay [1] is 0.02 µM; in assay [2] it was 0.023 µM.
As for `Cc1ccc(Nc2c(-c3ccc(F)cc3)nc3n2CC(=O)NC3(C)C)cc1` [Compound 507], the EC50 in assay [1] amounted to 0.14 µM; in assay [2] it was 0.136 µM.
The like results for `CC1(C)NC(=O)Cn2c1nc(-c1ccc(F)cc1)c2Nc1ccc(C#N)c(Cl)c1` [Compound 548] were, in that order, 2.63 µM and 5.55 µM.
`CC(C)[C@H](N)C(=O)N1CCn2c(nc(-c3ccc(F)cc3)c2Nc2ccc(F)c(F)c2)C1` [Compound 434]: the EC50 in assay [1] turned out to be 0.02 µM; in assay [2] it was 0.019 µM.
The matching figures for `CC1(C)NCCn2c1nc(-c1ccc(F)cc1)c2Nc1ccc(F)c(C#N)c1` [Compound 524]: 0.04 µM and 0.057 µM.
The like results for `CC1(C)NC(=O)Cn2c1nc(-c1ccc(F)cc1)c2Nc1ccc(F)c(C#N)c1` [Compound 537] were, in that order, 11.9 µM and 8.34 µM.
Take `CN1Cc2nc(-c3ccc(F)cc3)c(Nc3ccc(Cl)cc3)n2CC1(C)C` [Compound 556, N-(4-chlorophenyl)-2-(4-fluorophenyl)-6,6,7-trimethyl-5,6,7,8-tetrahydroimidazo[1,2-a]pyrazin-3-amine]: the EC50 in assay [1] was 0.06 µM; in assay [2], 0.075 µM.
The like results for `CN1CCN(Cc2cccc(Nc3c(-c4ccc(F)cc4)nc4n3CC(=O)NC4(C)C)c2)CC1` [Compound 569] were, in that order, 9.27 µM and 7.92 µM.
The like results for `CCN(c1ccc(Cl)c(F)c1)c1c(-c2ccc(F)cc2)nc2n1CCNC2` [Compound 413] were, in that order, 0.18 µM and 0.131 µM.
In the case of `C[C@H]1c2nc(-c3ccc(F)cc3)c(Nc3ccc(Cl)c(F)c3)n2CCN1C(=O)CN` [Compound 597], the concentration giving a half-maximal response (EC50) turned out to be 0.03 µM in assay [1] and 0.024 µM in assay [2].
The like results for `CC[C@H](C)[C@H](N)C(=O)N1CCn2c(nc(-c3ccc(F)cc3)c2Nc2ccc(F)c(F)c2)C1` [Compound 442] were, in that order, 0.02 µM and 0.033 µM.
The matching figures for `Cc1ccc(Nc2c(-c3ccc(F)cc3)nc3n2CCN(C(=O)[C@@H](N)C2CC2)C3)cc1` [Compound 404]: 0.02 µM and 0.012 µM.
The like results for `Cc1ccc(Nc2c(-c3ccc(F)c(Cl)c3)nc3n2CCN(C(=O)CN)C3)cc1` [Compound 519] were, in that order, 0.84 µM and 0.59 µM.
With `CC1(C)NC(=O)Cn2c1nc(-c1ccc(F)cc1)c2Nc1ccc(F)cc1` [Compound 512], the EC50 in assay [1] turned out to be 0.19 µM; in assay [2], 0.165 µM.
`N[C@H](C(=O)N1CCn2c(nc(-c3ccc(F)cc3)c2Nc2ccc(F)c(F)c2)C1)C1CC1` [Compound 437]: the figures for the EC50 in assay [1] and in assay [2] were 0.02 µM and 0.028 µM, respectively.
The matching figures for `Cc1ccc(Nc2c(-c3ccc(F)cc3)nc3n2CC(C)(C)N(C(=O)CN)C3)cc1` [Compound 573]: 0.04 µM and 0.055 µM.
The matching figures for `Fc1ccc(-c2nc3n(c2Nc2ccc(Cl)c(Cl)c2)CCNC3)cc1` [Compound 411]: 0.14 µM and 0.106 µM.
Consider `N[C@@H](Cc1ccc(F)cc1)C(=O)N1CCn2c(nc(-c3ccc(F)cc3)c2Nc2ccc(F)c(F)c2)C1` [Compound 443], for which the results for the EC50 in assay [1] and in assay [2] were 0.05 µM and 0.055 µM, respectively.
`N[C@@H](Cc1ccc(F)c(F)c1)C(=O)N1CCn2c(nc(-c3ccc(F)cc3)c2Nc2ccc(F)cc2)C1` [Compound 475]: the EC50 in assay [1] came out at 0.04 µM; in assay [2], 0.03 µM.
The matching figures for `CC(C)(N)C(=O)N1CCn2c(nc(-c3ccc(F)cc3)c2Nc2ccc(F)c(Cl)c2)C1(C)C` [Compound 586]: 0.01 µM and 0.007 µM.
The matching figures for `Cc1ccc(Nc2c(-c3cccc(F)c3)nc3n2C(C)(C)CN(C(=O)[C@@H](O)C(C)C)C3)cc1` [Compound 592]: 6.01 µM and 5.26 µM.
The matching figures for `Cc1ccc(Nc2c(-c3ccc(F)cc3)nc3n2CC(=O)NC3(C)C)cc1C#N` [Compound 535]: 2.72 µM and 2.35 µM.
As to `CC1(C)NC(=O)Cn2c1nc(-c1ccc(F)cc1)c2Nc1cc(F)c(F)c(F)c1` [Compound 543], the values for the EC50 in assay [1] and in assay [2] were 0.17 µM and 0.305 µM, respectively.
